In the oligonucleotide strings, read from the 5' end, every base follows the letter of its sugar. An asterisk marks phosphorothioate; unmarked linkages are phosphodiester. Other units and linkages are bracketed, terminal groups are in braces. A string of capitals states the bases alone. e = 2'-O-(2-methoxyethyl) (MOE); [5mC] = 5-methylcytosine; d = 2'-deoxy (DNA)
Test system: human Factor 7 mRNA
Experiment: Antisense inhibition of human Factor 7 mRNA in HepB3 cells, lipofectin, 50 nM, real-time RT-PCR
Type: cell-based
Conditions: Example 1; HepB3 cells, lipofectin, 50 nM, ~24 h, relative to untreated control cells
Procedure, shortened: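 Cells plated at 4,000 per well were transfected and harvested after approximately 24 hours of treatment. Transcript levels, measured with primer probe set RTS 2927, were normalised to total RNA by RIBOGREEN®. Values are percent inhibition relative to untreated control cells.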

Substance | % Inhibition (human Factor 7 mRNA)
407665 (antisense eG*eT*eT*eA*e[5mC]*dG*dA*dA*dG*dA*d[5mC]*dT*dG*dG*dG*eA*eA*eA*eT*eG) [compound 407665] | 29%
407904 (antisense eG*eA*eA*eA*e[5mC]*dA*dG*dT*dG*dG*dG*d[5mC]*d[5mC]*dG*d[5mC]*eG*eG*eA*eG*eA) [compound 407904] | 83%
407646 (antisense eG*eG*eT*eG*eA*dT*dG*d[5mC]*dT*dT*d[5mC]*dT*dG*dA*dA*eT*eT*eG*eT*e[5mC]) [compound 407646] | 81%
407929 (antisense eG*e[5mC]*eA*eG*eA*dG*d[5mC]*dA*dG*d[5mC]*dA*dG*d[5mC]*d[5mC]*dT*eG*eA*eG*eG*e[5mC]) [compound 407929] | 53%
407618 (antisense eG*eT*eA*eT*eT*dT*dT*dT*d[5mC]*d[5mC]*dA*d[5mC]*dA*dT*dG*eG*eA*eT*eA*eT) [compound 407618] | 42%
407655 (antisense eA*eG*eA*eG*eT*dG*d[5mC]*dA*dG*d[5mC]*dT*dT*dG*d[5mC]*d[5mC]*eA*eG*eG*eT*e[5mC]) [compound 407655] | 28%
407613 (antisense eT*eG*e[5mC]*eT*e[5mC]*dA*d[5mC]*dA*dG*d[5mC]*d[5mC]*dG*d[5mC]*d[5mC]*dG*eT*eT*e[5mC]*eT*e[5mC]) [compound 407613] | 66%
407667 (antisense eG*eT*eG*eG*e[5mC]*d[5mC]*dA*dT*dG*d[5mC]*d[5mC]*d[5mC]*dT*dG*dG*eG*eT*e[5mC]*eA*eG) [compound 407667] | 71%
407926 (antisense e[5mC]*e[5mC]*eA*eG*eG*dA*d[5mC]*dA*dA*d[5mC]*d[5mC]*dT*dT*dG*dG*e[5mC]*eA*e[5mC]*eT*e[5mC]) [compound 407926] | 79%
407903 (antisense e[5mC]*e[5mC]*eG*e[5mC]*eG*dG*dA*dG*dA*d[5mC]*d[5mC]*dA*d[5mC]*d[5mC]*d[5mC]*eA*eG*eA*eT*eG) [compound 407903] | 98%
407637 (antisense eG*eT*eA*e[5mC]*eT*dG*dG*dG*dA*dG*dA*d[5mC]*d[5mC]*d[5mC]*dT*eG*eG*eT*eG*eT) [compound 407637] | 71%
407650 (antisense e[5mC]*e[5mC]*eA*eT*eG*dT*dG*dA*dG*dG*dG*dT*dT*d[5mC]*dA*eT*eT*eT*e[5mC]*eA) [compound 407650] | 39%

Same assay, conditions: Example 4; HepB3 cells, lipofectin, 50 nM, ~24 h, relative to untreated control

Substance | % Inhibition (human Factor 7 mRNA)
422123 (antisense eG*eA*eG*e[5mC]*eG*d[5mC]*dG*dG*dA*dA*dG*dA*dA*dG*dG*eG*eA*e[5mC]*eG*eG) [compound 422123] | 16%
422122 (antisense eA*eG*e[5mC]*eG*e[5mC]*dG*dG*dA*dA*dG*dA*dA*dG*dG*dG*eA*e[5mC]*eG*eG*eA) [compound 422122] | 24%
422199 (antisense eG*eG*eT*dT*dA*d[5mC]*dT*dG*dA*dG*d[5mC]*dG*d[5mC]*dG*dG*dA*dA*eG*eA*eA) [compound 422199] | 65%
422275 (antisense eG*eT*dT*dA*d[5mC]*dT*dG*dA*dG*d[5mC]*dG*d[5mC]*dG*dG*dA*eA*eG*eA*eA*eG) [compound 422275] | 42%

Same assay, conditions: Example 6 microwalk, nucleobases 15098 to 15122 of SEQ ID NO: 1; HepB3, lipofectin, 50 nM, ~24 h

Substance | % Inhibition (human Factor 7 mRNA)
422288 (antisense eA*e[5mC]*dA*dG*d[5mC]*dA*d[5mC]*dA*d[5mC]*dA*dT*dG*dG*dA*dG*eT*e[5mC]*eA*eG*e[5mC]) [compound 422288] | 44%

Same assay, conditions: HepB3 cells, lipofectin, 50 nM antisense oligonucleotide, approximately 24 hours, primer probe set RTS 2927, relative to untreated control

Substance | % Inhibition of human Factor 7 mRNA levels
416488 (antisense e[5mC]*eA*eG*eG*eT*d[5mC]*d[5mC]*dT*d[5mC]*d[5mC]*d[5mC]*dA*d[5mC]*dT*dG*e[5mC]*eA*eG*e[5mC]*e[5mC]) [compound 416488] | 41%
416461 (antisense eG*eA*eA*eG*e[5mC]*dG*d[5mC]*dA*d[5mC]*dG*dA*dA*dG*dG*d[5mC]*e[5mC]*eA*eG*e[5mC]*eG) [compound 416461] | 43%
416441 (antisense eA*eG*eA*eT*eA*dT*dA*dG*dG*dA*d[5mC]*dT*dG*dG*dA*eG*e[5mC]*eT*eG*eG) [compound 416441] | 32%
416470 (antisense eG*e[5mC]*eT*eT*eT*dT*dG*d[5mC]*dA*dG*d[5mC]*d[5mC]*dA*d[5mC]*dT*e[5mC]*eG*eA*eT*eG) [compound 416470] | 39%
416520 (antisense e[5mC]*e[5mC]*e[5mC]*eT*e[5mC]*dT*dG*d[5mC]*dA*dA*dA*dT*dA*dT*dG*eG*eG*eA*e[5mC]*e[5mC]) [compound 416520] | 14%
416517 (antisense eG*eG*eG*eT*eG*d[5mC]*dA*dG*dT*dA*dG*d[5mC]*dA*dG*dA*eT*eG*e[5mC]*eA*eA) [compound 416517] | 23%
416430 (antisense eG*e[5mC]*eA*eG*e[5mC]*dT*d[5mC]*d[5mC]*dT*d[5mC]*d[5mC]*dA*dG*dG*dA*eA*e[5mC]*eG*e[5mC]*eG) [compound 416430] | 52%
416458 (antisense eG*eG*e[5mC]*eG*eG*dA*dG*d[5mC]*dA*dG*d[5mC]*dG*d[5mC]*dG*dA*eT*eG*eT*e[5mC]*eG) [compound 416458] | 29%
416559 (antisense eG*e[5mC]*e[5mC]*eA*eT*dT*dT*d[5mC]*dT*dA*dG*dG*dT*d[5mC]*dT*eG*e[5mC]*eA*eG*eG) [compound 416559] | 25%
416465 (antisense e[5mC]*eA*e[5mC]*eT*eG*dT*d[5mC]*d[5mC]*d[5mC]*d[5mC]*d[5mC]*dT*dT*dG*d[5mC]*eA*eG*eG*eA*eG) [compound 416465] | 51%
416453 (antisense eG*eA*eT*eT*eT*dT*dG*dT*d[5mC]*dG*dA*dA*dA*d[5mC]*dA*eG*eT*eG*eG*eG) [compound 416453] | 45%
416445 (antisense eT*eA*e[5mC]*eT*eG*d[5mC]*dT*d[5mC]*dA*d[5mC]*dA*dG*d[5mC]*d[5mC]*dG*e[5mC]*e[5mC]*eG*eT*eT) [compound 416445] | 57%

Same assay, conditions: HepB3 cells; gapmers (5-10-5, 3-14-3, 2-13-5 MOE) targeted to nucleobases 4868 to 4899 of SEQ ID NO: 1

Substance | % Inhibition of human Factor 7 mRNA levels
422302 (antisense eA*eG*dG*dA*dG*d[5mC]*d[5mC]*d[5mC]*dG*dA*dG*dT*dT*d[5mC]*dT*eG*e[5mC]*eA*eG*eG) [compound 422302] | 67%
422298 (antisense eG*e[5mC]*d[5mC]*d[5mC]*dG*dA*dG*dT*dT*d[5mC]*dT*dG*d[5mC]*dA*dG*eG*eA*eG*e[5mC]*eG) [compound 422298] | 62%
422147 (antisense eG*eA*eG*e[5mC]*e[5mC]*d[5mC]*dG*dA*dG*dT*dT*d[5mC]*dT*dG*d[5mC]*eA*eG*eG*eA*eG) [compound 422147] | 64%
422221 (antisense eG*e[5mC]*e[5mC]*d[5mC]*dG*dA*dG*dT*dT*d[5mC]*dT*dG*d[5mC]*dA*dG*dG*dA*eG*e[5mC]*eG) [compound 422221] | 59%

Same assay, conditions: HepB3 cells; gapmers targeted to nucleobases 11830 to 11869 of SEQ ID NO: 1 (Table 9)

Substance | % Inhibition of human Factor 7 mRNA levels
422231 (antisense eT*e[5mC]*dA*dG*dG*dG*d[5mC]*dT*dG*dG*dT*dT*dT*dT*dG*eG*eA*eG*eG*eA) [compound 422231] | 22%
422235 (antisense eA*eT*dG*dG*dT*d[5mC]*dA*dG*dG*dG*d[5mC]*dT*dG*dG*dT*eT*eT*eT*eG*eG) [compound 422235] | 50%
422098 (antisense eG*eG*eA*eG*eA*d[5mC]*dA*dA*dT*dG*dG*dT*d[5mC]*dA*dG*eG*eG*e[5mC]*eT*eG) [compound 422098] | 53%
422106 (antisense e[5mC]*eT*eG*eG*e[5mC]*dT*dG*dA*dG*dG*dA*dG*dA*d[5mC]*dA*eA*eT*eG*eG*eT) [compound 422106] | 32%
422095 (antisense eA*e[5mC]*eA*eA*eT*dG*dG*dT*d[5mC]*dA*dG*dG*dG*d[5mC]*dT*eG*eG*eT*eT*eT) [compound 422095] | 60%
422237 (antisense e[5mC]*eA*dA*dT*dG*dG*dT*d[5mC]*dA*dG*dG*dG*d[5mC]*dT*dG*eG*eT*eT*eT*eT) [compound 422237] | 50%

Same assay, conditions: HepB3 cells; gapmers targeted to nucleobases 13760 to 13789 of SEQ ID NO: 1 (Table 10)

Substance | % Inhibition of human Factor 7 mRNA levels
422182 (antisense e[5mC]*eG*e[5mC]*d[5mC]*dA*d[5mC]*d[5mC]*d[5mC]*dG*d[5mC]*d[5mC]*dG*dG*d[5mC]*dT*d[5mC]*dT*eG*e[5mC]*eT) [compound 422182] | 11%
422259 (antisense e[5mC]*eG*d[5mC]*d[5mC]*dA*d[5mC]*d[5mC]*d[5mC]*dG*d[5mC]*d[5mC]*dG*dG*d[5mC]*dT*e[5mC]*eT*eG*e[5mC]*eT) [compound 422259] | 61%

Same assay, conditions: HepB3 cells; gapmers targeted to nucleobases 14707 to 14732 of SEQ ID NO: 1 (Table 11)

Substance | % Inhibition of human Factor 7 mRNA levels
422280 (antisense e[5mC]*eA*dG*d[5mC]*d[5mC]*dT*dG*dA*dG*dG*d[5mC]*d[5mC]*dA*dG*d[5mC]*eA*eG*eA*eT*e[5mC]) [compound 422280] | 52%

Same assay, conditions: HepB3 cells; gapmers targeted to nucleobases 15188 to 15211 of SEQ ID NO: 1 (Table 13)

Substance | % Inhibition of human Factor 7 mRNA levels
422085 (antisense eG*e[5mC]*eA*eT*eG*dG*dT*dG*dA*dT*dG*d[5mC]*dT*dT*d[5mC]*eT*eG*eA*eA*eT) [compound 422085] | 70%

Reference: patent publication US20120214862A1, “MODULATION OF FACTOR 7 EXPRESSION” (ISIS Pharmaceuticals, Inc., priority 2009, published 2012)
